Data reported in PubChem BioAssay (NCI).
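Interpolation was linear, between the two tested concentrations surrounding the appropriate level; five concentrations were tested over 48 hours in 96-well plates. At the GI50, growth is halved. TGI: concentration producing complete growth inhibition.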

Key:
Assay in all cases: NCI-60 cell line screen, 48 h
[1] = test system: SK-MEL-2 melanoma
[2] = test system: UACC-62 melanoma
[3] = test system: EKVX NSCLC
[4] = test system: U251 CNS
[5] = test system: SR leukemia
[6] = test system: HOP-62 NSCLC
[7] = test system: T-47D breast
[8] = test system: OVCAR-5 ovarian
[9] = test system: MALME-3M melanoma
[10] = test system: SF-268 CNS
[11] = test system: OVCAR-4 ovarian
[12] = test system: HCC-2998 colon
[13] = test system: NCI/ADR-RES ovarian
[14] = test system: UO-31 renal
[15] = test system: IGROV1 ovarian
[16] = test system: OVCAR-8 ovarian
[17] = test system: COLO 205 colon
[18] = test system: SK-MEL-28 melanoma
[19] = test system: DU-145 prostate
[20] = test system: MOLT-4 leukemia
[21] = test system: BT-549 breast
[22] = test system: NCI-H522 lung
[23] = test system: RXF 393 renal
[24] = test system: NCI-H23 lung
[25] = test system: MCF7 breast
[26] = test system: 786-0 renal
[27] = test system: OVCAR-3 ovarian
[28] = test system: HL-60(TB) leukemia
[29] = test system: TK-10 renal
[30] = test system: SNB-19 CNS
[31] = test system: A498 renal
[32] = test system: K-562 leukemia
[33] = test system: SW-620 colon
[34] = test system: CAKI-1 renal
[35] = test system: LOX IMVI melanoma
[36] = test system: ACHN renal
[37] = test system: M14 melanoma
[38] = test system: MDA-MB-435
[39] = test system: HCT-116 colon
[40] = test system: SF-539 CNS
[41] = test system: NCI-H226 lung
[42] = test system: KM12 colon
[43] = test system: HT29 colon
[44] = test system: HCT-15 colon
[45] = test system: SNB-75 CNS
[46] = test system: SN12C renal
[47] = test system: RPMI-8226 leukemia
[48] = test system: SF-295 CNS
[49] = test system: HS 578T breast
[50] = test system: SK-OV-3 ovarian
[51] = test system: MDA-MB-231 breast
[52] = test system: NCI-H460 lung
[53] = test system: PC-3 prostate
[54] = test system: A549 NSCLC
[55] = test system: SK-MEL-5 melanoma
[56] = test system: HOP-92 NSCLC
[57] = test system: UACC-257 melanoma
[58] = test system: CCRF-CEM leukemia

C[C@@H]1C[C@H](C)CN(S(=O)(=O)c2ccc3c(NO)c4ccc(S(=O)(=O)N5C[C@H](C)C[C@H](C)C5)cc4c(N=O)c3c2)C1
GI50 [1]: 0.194 µM
TGI [1]: 0.403 µM
GI50 [2]: 0.181 µM
TGI [2]: 0.345 µM
GI50 [3]: 0.128 µM
TGI [3]: 0.269 µM
GI50 [4]: 0.129 µM
TGI [4]: 0.266 µM
GI50 [5]: 0.0367 µM
TGI [5]: 0.215 µM
GI50 [6]: 0.171 µM
TGI [6]: 0.324 µM
GI50 [7]: 0.178 µM
TGI [7]: 0.362 µM
GI50 [8]: 0.173 µM
TGI [8]: 0.4 µM
GI50 [9]: 0.14 µM
TGI [9]: 0.293 µM
GI50 [10]: 0.0252 µM
TGI [10]: 0.0698 µM
GI50 [11]: 0.17 µM
TGI [11]: 0.346 µM
GI50 [12]: 0.122 µM
TGI [12]: 0.265 µM
GI50 [13]: 0.302 µM
TGI [13]: > 1 µM
GI50 [14]: 0.167 µM
TGI [14]: 0.338 µM
GI50 [15]: 0.21 µM
TGI [15]: 0.461 µM
GI50 [16]: 0.232 µM
TGI [16]: 0.527 µM
GI50 [17]: 0.172 µM
TGI [17]: 0.342 µM
GI50 [18]: 0.129 µM
TGI [18]: 0.276 µM
GI50 [19]: 0.115 µM
TGI [19]: 0.268 µM
GI50 [20]: 0.0478 µM
TGI [20]: 0.194 µM
GI50 [21]: 0.175 µM
TGI [21]: 0.34 µM
GI50 [22]: 0.181 µM
TGI [22]: 0.36 µM
GI50 [23]: 0.158 µM
TGI [23]: 0.299 µM
GI50 [24]: 0.185 µM
TGI [24]: 0.4 µM
GI50 [25]: 0.176 µM
TGI [25]: 0.357 µM
GI50 [26]: 0.169 µM
TGI [26]: 0.309 µM
GI50 [27]: 0.182 µM
TGI [27]: 0.328 µM
GI50 [28]: 0.185 µM
TGI [28]: 0.448 µM
GI50 [29]: 0.168 µM
TGI [29]: 0.321 µM
GI50 [30]: 0.164 µM
TGI [30]: 0.353 µM
TGI [31]: > 1 µM
GI50 [32]: 0.0356 µM
TGI [32]: 0.12 µM
GI50 [33]: 0.0298 µM
TGI [33]: 0.104 µM
GI50 [34]: 0.335 µM
TGI [34]: > 1 µM
GI50 [35]: 0.105 µM
TGI [35]: 0.242 µM
GI50 [36]: 0.143 µM
TGI [36]: 0.293 µM
GI50 [37]: 0.103 µM
TGI [37]: 0.231 µM
GI50 [38]: 0.181 µM
TGI [38]: 0.397 µM
GI50 [39]: 0.032 µM
TGI [39]: 0.115 µM
GI50 [40]: 0.0564 µM
TGI [40]: 0.207 µM
GI50 [41]: 0.157 µM
TGI [41]: 0.364 µM
GI50 [42]: 0.0833 µM
TGI [42]: 0.257 µM
GI50 [43]: 0.159 µM
TGI [43]: 0.313 µM
GI50 [44]: 0.0717 µM
TGI [44]: 0.211 µM
GI50 [45]: 0.123 µM
TGI [45]: 0.255 µM
GI50 [46]: 0.17 µM
TGI [46]: 0.399 µM
GI50 [47]: 0.24 µM
TGI [47]: 0.669 µM
GI50 [48]: 0.178 µM
TGI [48]: 0.338 µM
GI50 [49]: 0.161 µM
TGI [49]: 0.422 µM
GI50 [50]: 0.122 µM
TGI [50]: 0.248 µM
GI50 [51]: 0.0738 µM
TGI [51]: 0.234 µM
GI50 [52]: 0.0565 µM
TGI [52]: 0.222 µM
GI50 [53]: 0.117 µM
TGI [53]: 0.249 µM
GI50 [54]: 0.17 µM
TGI [54]: 0.327 µM
GI50 [55]: 0.25 µM
TGI [55]: 0.687 µM
GI50 [56]: 0.167 µM
TGI [56]: 0.522 µM

CC(=O)c1c(C)nc(SSc2nc(C)c(C(C)=O)c(-c3ccc(Cl)cc3)c2C#N)c(C#N)c1-c1ccc(Cl)cc1
GI50 [2]: 29 mg/L
TGI [2]: > 150 mg/L
GI50 [3]: 145 mg/L
TGI [3]: > 150 mg/L
GI50 [4]: 53.6 mg/L
TGI [4]: > 150 mg/L
GI50 [5]: > 150 mg/L
TGI [5]: > 150 mg/L
GI50 [6]: 47.5 mg/L
TGI [6]: > 150 mg/L
GI50 [7]: 36.1 mg/L
TGI [7]: > 150 mg/L
GI50 [8]: > 150 mg/L
TGI [8]: > 150 mg/L
GI50 [9]: 50.9 mg/L
TGI [9]: > 150 mg/L
GI50 [10]: 102 mg/L
TGI [10]: > 150 mg/L
GI50 [11]: 62.6 mg/L
TGI [11]: > 150 mg/L
GI50 [57]: > 150 mg/L
TGI [57]: > 150 mg/L
GI50 [13]: 118 mg/L
TGI [13]: > 150 mg/L
GI50 [14]: 82 mg/L
TGI [14]: > 150 mg/L
GI50 [15]: 88.1 mg/L
TGI [15]: > 150 mg/L
GI50 [16]: 79.2 mg/L
TGI [16]: > 150 mg/L
GI50 [17]: > 150 mg/L
TGI [17]: > 150 mg/L
GI50 [18]: 103 mg/L
TGI [18]: > 150 mg/L
GI50 [19]: 140 mg/L
TGI [19]: > 150 mg/L
GI50 [20]: 134 mg/L
TGI [20]: > 150 mg/L
GI50 [21]: 38.4 mg/L
TGI [21]: 97.2 mg/L
GI50 [23]: 22.5 mg/L
TGI [23]: 78.4 mg/L
GI50 [24]: 67.4 mg/L
TGI [24]: > 150 mg/L
GI50 [25]: > 150 mg/L
TGI [25]: > 150 mg/L
GI50 [27]: 59.9 mg/L
TGI [27]: > 150 mg/L
GI50 [28]: > 150 mg/L
TGI [28]: > 150 mg/L
GI50 [29]: 102 mg/L
TGI [29]: > 150 mg/L
GI50 [30]: 78.4 mg/L
TGI [30]: > 150 mg/L
GI50 [32]: 60.6 mg/L
TGI [32]: > 150 mg/L
GI50 [33]: 69.4 mg/L
TGI [33]: > 150 mg/L
GI50 [34]: 62.7 mg/L
TGI [34]: > 150 mg/L
GI50 [35]: 49.2 mg/L
TGI [35]: > 150 mg/L
GI50 [36]: 76.9 mg/L
TGI [36]: > 150 mg/L
GI50 [37]: 81.5 mg/L
TGI [37]: > 150 mg/L
GI50 [38]: > 150 mg/L
TGI [38]: > 150 mg/L
GI50 [39]: 94.4 mg/L
TGI [39]: > 150 mg/L
GI50 [40]: 47.7 mg/L
TGI [40]: > 150 mg/L
GI50 [42]: 133 mg/L
TGI [42]: > 150 mg/L
GI50 [43]: > 150 mg/L
TGI [43]: > 150 mg/L
GI50 [44]: > 150 mg/L
TGI [44]: > 150 mg/L
GI50 [45]: 23.3 mg/L
TGI [45]: 80.3 mg/L
GI50 [46]: 15 mg/L
TGI [46]: 15 mg/L
GI50 [47]: > 150 mg/L
TGI [47]: > 150 mg/L
GI50 [58]: > 150 mg/L
TGI [58]: > 150 mg/L
GI50 [48]: 50.2 mg/L
TGI [48]: > 150 mg/L
GI50 [49]: 22.9 mg/L
TGI [49]: 54.8 mg/L
GI50 [50]: 29.3 mg/L
TGI [50]: > 150 mg/L
GI50 [51]: 34.4 mg/L
TGI [51]: 103 mg/L
GI50 [52]: 136 mg/L
TGI [52]: > 150 mg/L
GI50 [53]: > 150 mg/L
TGI [53]: > 150 mg/L
GI50 [54]: 73 mg/L
TGI [54]: > 150 mg/L
GI50 [55]: 61.7 mg/L
TGI [55]: > 150 mg/L
